Where “and” joins values, the source holds several entries; their conditions need not be identical. Equal values may be shown once. Entries after “also recorded” stand apart in the source; their conditions may differ.
Assay: In-vitro percutaneous absorption of retinoic acid and triamcinolone acetonide from two cocoa butter vehicles (Franz cells, 48 h)
Settings: for % Abs (% Absorbed) / % Absorbed / total absorption: percent of applied dose
From the text: The objective of this study was to measure the permeation of retinoic acid and triamcinolone acetonide through human skin in-vitro from two cocoa butter vehicles.
Two cocoa butter vehicles supplied by Hershey Foods Corporation were utilized: (1) pure cocoa butter and (2) partially hydrolyzed cocoa butter emulsion. Radioactive [11,12-^3 H] [retinoic acid (NET 920, Lot 2930-067, specific activity 1 mCi/ml) and [6,7-^3 H]-triamcinolone acetonide (NET 470, Lot 2904-170, specific activity 1 mCi/ml) were obtained from Dupont-New England Nuclear Corporation, Boston, Mass.
Each of the two cocoa butter vehicles was spiked separately with ^3 H-retinoic acid and ^3 H-Triamcinolone acetonide to give a total of four radioactive formulations for study. This was done by adding 25 μl (containing 25 μCi) of each tracer solution to approximately 1 gram of each vehicle and mixing with the tip of the dispensing micropipette. The pure cocoa butter vehicle was liquified by holding it under warm tap water prior to spiking. This was not done with the partially hydrolyzed cocoa butter emulsion. Neither formulation was used for three days after spiking to allow for diffusional mixing to take place. Final radioactive concentrations of each formulation were: […]
Human trunk skin without obvious signs of disease was used throughout. It was obtained within 24 hours of death, dermatomed to a thickness of approximately 0.25 mm, cryopreserved and sealed in water vapor-impermeableplastic bags. It was stored at -70° C. until the day of use then thawed by placing the bag in 37° C. water.
Skin from a single donor was cut into multiple sections large enough to fit on 0.8 cm^2 Franz cells. The dermal chamber was filled with isotonic saline, pH 7.4, into which a small magnetic stirring bar was placed. The epidermal chamber was left open to the ambient laboratory environment, approximately 22° C. and 40-60% RH. The cells were placed in a diffusion apparatus in which the dermal receptor solution was stirred magnetically at 600 RPM and its temperature maintained at 37° C.
To assure the integrity of each skin section, its permeability to tritiated water was determined before application of the test formulations. Following a brief (0.5-1 hour) equilibration period, 150 μl ^3 H2 O (specific activity 0.3 μCi/ml) was layered across the top of the skin section so that the entire exposed surface was covered. After 5 minutes the aqueous layer was removed and the surface of the skin carefully blotted dry. At t=0.5 hour the saline receptor phase was removed and analyzed for radioactive content by liquid scintillation counting. Skin specimens in which absorption of ^3 H2 O was less than 1.25 μl were considered acceptable.
Subsequently, each test formulation was applied at a target dose of 10 mg (cream) or 10 μl (butter). The cream formulation (partially hydrolyzed cocoa butter emulsion) was applied from the smooth, rounded-tip of a glass rod, the exact amount determined by weighing the rod before and after application. The butter formulation (pure cocoa butter) was first liquified under warm tap water, allowed to cool to room temperature, then applied with a 10 μl positive displacement micropipette prior to resolidifying. At 4, 8, 12, 24, 36 and 48 hours the receptor solution was removed in its entirety, replaced with fresh solution, and a 1 ml aliquot taken and assayed for radioactive content by liquid scintillation counting.
A 1 ml aliquot of each receptor sample containing ^3 H2 O, ^3 H-retinoic acid, or ^3 H-triamcinolone acetonide was placed in a 7 ml glass scintillation vial and gelled by the addition of 5 ml Opti-Fluor (Packard Instrument Co., Meriden, Conn.). These were counted in a Packard Tri-Carb Model 1900CA Liquid scintillation Analyzer equipped with internal standard and automatic quench correction.

[1] = butter (pure cocoa butter), 48 h, individual skin sections
[2] = butter, 48 h, average of three donors
[3] = butter, 48 h, average per skin donor (n=4), listed as RETINOIC ACID
[4] = butter, 48 h, average per skin donor (n=4), listed as Retinoic Acid

Which “absorption period versus current formulations” value (admixed with cocoa butter or partially hydrolyzed cocoa butter emulsion, in words) does the source give for `CC1=C(/C=C/C(C)=C/C=C/C(C)=C/C(=O)O)C(C)(C)CCC1` [retinoic acid] here?
The value was “able to sustain a longer absorption period than has been demonstrated with current retinoic acid formulations”.

And the “steady state rate of absorption” value (both cocoa butter formulations)?
Its value is “approximately 15 ng/cm^2 /hr”.

And the “rate of absorption profile / flux” value (both cocoa butter formulations, in words)?
The value was “higher than generally seen with other retinoic acid formulations; also recorded: relatively high flux rates”.

What about the “Penet (Total Penetration)” value [1] of the same molecule?
The value was 729.80 and 954.98 and 769.08 and 941.38 and 725.19 and 871.67 and 741.10 and 1267.53 and 552.40 and 552.46 and 685.17 and 944.68.

And the “% Abs (% Absorbed)” value [1]?
Its value is 14.59% and 19.10% and 15.38% and 18.82% and 14.50% and 17.43% and 14.82% and 25.35% and 11.05% and 13.70% and 18.89%.

What about the “Rate of absorption, R1” value (butter (pure cocoa butter), sample R1, mid-t 2 h, individual skin sections) of the same molecule?
The value was 36.55 ng/cm^2 /hr and 48.20 ng/cm^2 /hr and 39.43 ng/cm^2 /hr and 51.22 ng/cm^2 /hr and 55.25 ng/cm^2 /hr and 66.87 ng/cm^2 /hr and 50.92 ng/cm^2 /hr and 79.43 ng/cm^2 /hr and 40.64 ng/cm^2 /hr and 39.67 ng/cm^2 /hr and 51.71 ng/cm^2 /hr and 75.03 ng/cm^2 /hr.

And the “Rate of absorption, R3” value (butter (pure cocoa butter), sample R3, mid-t 10 h, individual skin sections)?
The value was 23.55 ng/cm^2 /hr and 28.39 ng/cm^2 /hr and 24.05 ng/cm^2 /hr and 29.61 ng/cm^2 /hr and 22.32 ng/cm^2 /hr and 21.53 ng/cm^2 /hr and 20.69 ng/cm^2 /hr and 34.12 ng/cm^2 /hr and 16.59 ng/cm^2 /hr and 15.24 ng/cm^2 /hr and 17.69 ng/cm^2 /hr and 25.75 ng/cm^2 /hr.

And the “Rate of absorption, R4” value (butter (pure cocoa butter), sample R4, mid-t 18 h, individual skin sections)?
The value was 14.13 ng/cm^2 /hr and 23.33 ng/cm^2 /hr and 15.22 ng/cm^2 /hr and 18.56 ng/cm^2 /hr and 18.11 ng/cm^2 /hr and 20.56 ng/cm^2 /hr and 20.18 ng/cm^2 /hr and 33.78 ng/cm^2 /hr and 15.63 ng/cm^2 /hr and 14.10 ng/cm^2 /hr and 16.64 ng/cm^2 /hr and 23.97 ng/cm^2 /hr.

And the “Rate of absorption, R5” value (butter (pure cocoa butter), sample R5, mid-t 30 h, individual skin sections)?
Its value is 16.12 ng/cm^2 /hr and 19.00 ng/cm^2 /hr and 18.23 ng/cm^2 /hr and 16.25 ng/cm^2 /hr and 11.93 ng/cm^2 /hr and 15.30 ng/cm^2 /hr and 12.34 ng/cm^2 /hr and 23.05 ng/cm^2 /hr and 8.38 ng/cm^2 /hr and 9.60 ng/cm^2 /hr and 10.78 ng/cm^2 /hr and 16.34 ng/cm^2 /hr.

And the “Rate of absorption, R6” value (butter (pure cocoa butter), sample R6, mid-t 42 h, individual skin sections)?
The value was 15.54 ng/cm^2 /hr and 17.94 ng/cm^2 /hr and 14.86 ng/cm^2 /hr and 24.92 ng/cm^2 /hr and 11.83 ng/cm^2 /hr and 16.34 ng/cm^2 /hr and 13.15 ng/cm^2 /hr and 24.58 ng/cm^2 /hr and 8.20 ng/cm^2 /hr and 9.16 ng/cm^2 /hr and 10.53 ng/cm^2 /hr and 14.03 ng/cm^2 /hr.

What about the “Total Penetration” value [2] of the same molecule?
The value was 811.29.

And the “Penet (Total Penetration)” value [3]?
Its value is 848.81 and 901.37 and 683.68.

And the “Penet (Total Penetration)” value [4]?
Its value is 683.68 and 901.37 and 848.81.

And the “Rate of absorption, R1” value (butter, R1, mid-t 2 h, average of three donors)?
Its value is 52.91 ng/cm^2 /hr.

What about the “Rate of absorption, R1” value (butter, R1, mid-t 2 h, average per skin donor (n=4), listed as RETINOIC ACID) of the same molecule?
The value was 43.85 ng/cm^2 /hr and 63.12 ng/cm^2 /hr and 51.76 ng/cm^2 /hr.

What about the “Rate of absorption, R1” value (butter, R1, mid-t 2 h, average per skin donor (n=4), listed as Retinoic Acid) of the same molecule?
Its value is 51.76 ng/cm^2 /hr and 63.12 ng/cm^2 /hr and 43.85 ng/cm^2 /hr.

What about the “Rate of absorption, R3” value (butter, R3, mid-t 10 h, average of three donors) of the same molecule?
Its value is 23.30 ng/cm^2 /hr.

And the “Rate of absorption, R3” value (butter, R3, mid-t 10 h, average per skin donor (n=4), listed as RETINOIC ACID)?
The value was 26.40 ng/cm^2 /hr and 24.67 ng/cm^2 /hr and 18.82 ng/cm^2 /hr.

What about the “Rate of absorption, R3” value (butter, R3, mid-t 10 h, average per skin donor (n=4), listed as Retinoic Acid) of the same molecule?
The value was 18.82 ng/cm^2 /hr and 24.67 ng/cm^2 /hr and 26.40 ng/cm^2 /hr.

And the “Rate of absorption, R4” value (butter, R4, mid-t 18 h, average of three donors)?
Its value is 19.52 ng/cm^2 /hr.

What about the “Rate of absorption, R4” value (butter, R4, mid-t 18 h, average per skin donor (n=4), listed as RETINOIC ACID) of the same molecule?
Its value is 17.81 ng/cm^2 /hr and 23.16 ng/cm^2 /hr and 17.59 ng/cm^2 /hr.

What about the “Rate of absorption, R4” value (butter, R4, mid-t 18 h, average per skin donor (n=4), listed as Retinoic Acid) of the same molecule?
The value was 17.59 ng/cm^2 /hr and 23.16 ng/cm^2 /hr and 17.81 ng/cm^2 /hr.

What about the “Rate of absorption, R5” value (butter, R5, mid-t 30 h, average of three donors) of the same molecule?
Its value is 14.78 ng/cm^2 /hr.

What about the “Rate of absorption, R5” value (butter, R5, mid-t 30 h, average per skin donor (n=4), listed as RETINOIC ACID) of the same molecule?
Its value is 17.40 ng/cm^2 /hr and 15.66 ng/cm^2 /hr and 11.28 ng/cm^2 /hr.

What about the “Rate of absorption, R5” value (butter, R5, mid-t 30 h, average per skin donor (n=4), listed as Retinoic Acid) of the same molecule?
The value was 11.28 ng/cm^2 /hr and 15.66 ng/cm^2 /hr and 17.40 ng/cm^2 /hr.

And the “Rate of absorption, R6” value (butter, R6, mid-t 42 h, average of three donors)?
The value was 15.09 ng/cm^2 /hr.

And the “Rate of absorption, R6” value (butter, R6, mid-t 42 h, average per skin donor (n=4), listed as RETINOIC ACID)?
Its value is 18.31 ng/cm^2 /hr and 16.48 ng/cm^2 /hr and 10.48 ng/cm^2 /hr.

And the “Rate of absorption, R6” value (butter, R6, mid-t 42 h, average per skin donor (n=4), listed as Retinoic Acid)?
Its value is 10.48 ng/cm^2 /hr and 16.48 ng/cm^2 /hr and 18.31 ng/cm^2 /hr.

And the “% Absorbed / total absorption” value [2]?
Its value is 16.2%.

And the “% Absorbed / total absorption” value (butter, 48 h, average of three donors, listed as Retinoic Acid)?
The value was 16.22%.

And the “% Abs (% Absorbed)” value [3]?
The value was 16.97% and 18.02% and 13.67%.

And the “% Abs (% Absorbed)” value [4]?
Its value is 13.67% and 18.02% and 16.97%.
